# Assay results from patent US20100203647A1, “Chemical Reporters of Protein Acylation” (THE ROCKEFELLER UNIVERSITY, priority 2008, published 2010).
# Assays:
# [1] = biological target: T1, p300 (Homo sapiens, UniProt Q09472); experiment: MALDI-TOF analysis of p300-catalyzed acylation of histone H3 peptide in vitro; type: biochemical; conditions: 20 μM analog, MS analysis
# T1 construct: made in house; host or cells: SF9 insect cells, baculovirus
# Experimental: Cells were lysed in lysis buffer (20 mM Tris, pH 7.5, 500 mM NaCl, 4 mM MgCl2, 0.4 mM EDTA, 20% glycerol, 2 mM DTT, and supplemented with protease inhibitors). Clarified cell lysates were diluted to 300 mM NaCl, and NP-40 was added to 0.1% final concentration. Flag M2 agarose resin (Sigma) was added to the lysate and incubated for 4 hours at 4° C. […] Protein concentration and purity were estimated by comparison to BSA standards on SDS gels stained with Gelcode Blue stain (Pierce).
# [2] = biological target: T1, p300; experiment: In vitro acylation of histone H3 protein by p300 and mapping of modification sites (spectral counts, nano-HPLC/MS/MS); type: biochemical
# Experimental: Following the in vitro reaction, proteins were separated on 15% SDS-PAGE and stained with coomassie brilliant blue R-250 staining solution (Bio-Rad). The gel slices containing histone H3 products were excised from each lane, washed with 50 mM ammonium bicarbonate (ABC) twice, destained with 50 mM ABC/CH3CN (50/50) twice and dehydrated with CH3CN. After drying the gel slices in a SpeedVac, gel slices were rehydrated with trypsin solution (2 μg of trypsin for each vial/gel slice) and incubated in 37° C. water bath for 18 hrs. Trypsin-digested peptides in solution were collected, dried in SpeedVac, resuspended in H2O (with 0.1% TFA) and submitted samples to nano-HPLC/MS/MS analysis (Thermo LTQ-Orbitrap in the Proteomic Resource Center at Rockefeller University).
# LC-MS analysis was performed with a Dionex 3000 nano-HPLC coupled to an LTQ-Orbitrap ion trap mass spectrometer (ThermoFisher). Peptides were pressure loaded onto a home made 75 μm diameter, 15 cm C18 reverse phase column and separated with a gradient running from 95% buffer A (HPLC water with 0.1% formic acid) and 5% buffer B (HPLC grade acetonitrile with 0.1% formic acid) to 55% B over 30 min, next ramping to 95% B over 10 min and holding 95% B for 10 min. One full MS scan (300-2000 MW) was followed by 3 data dependent scans of the nth most intense ions with dynamic exclusion enabled. The spray voltage was set to 1.94 kV and the flow rate through the column was set to 0.25 μL/min.
# Raw tandem mass spectra were searched against the human IPI protein database version 3.56 using SEQUEST search engine (Thermo Scientific). Cysteine carbamido-methylation was searched as fixed modification, while methionine/tryptophan oxidation, asparagines/glutamine deamindation, lysine/serine/threonine/cysteine acetylation, N-terminal acetylation/3-butynylation/4-pentynylation/5-hexynylation and lysine 3-butynylation/4-pentynylation/5-hexynylation were searched as variable modifications. Peptide tolerance was set as 10.0 ppm, fragment ion tolerance was set as 1.0 AMU and trypsin was set as the digestion enzyme. The resulting searching files were then analyzed and visualized by Scaffold 2 proteome software.
# Each identified protein must contain at least 2 unique peptides that are exclusively assigned to this protein with a minimum protein identification probability of 99%. Each peptide spectrum must meet several selection thresholds including >95% for peptide identification probability, >1.0 for SEQUEST XCorr score, and ±6 ppm for actual minus calculated peptide mass.
# [3] = biological target: T1, p300; experiment: In-gel fluorescent detection of p300-catalyzed in vitro acylation of histone H3; type: biochemical; conditions: CuAAC with az-Rho, in-gel fluorescence
# Text: CuAAC reactions were allowed to proceed at room temperature for 1 hr, and proteins were subsequently separated on 15% SDS-PAGE. The gels were soaked in destaining solution (40% MeOH, 10% AcOH, 50% H2O) for 1-2 hrs to remove the non-covalently bound az-Rho dye. After washing with dd H2O, the gel was subjected to in-gel fluorescence scanning.
# [4] = test system: Jurkat cells; experiment: Metabolic labeling with inhibitors; conditions: from CHX and NH2OH sensitivity in Jurkat cell lysates
# [5] = test system: M. smegmatis; experiment: Labeling of acylated proteins in bacterial cells with alkynyl-chemical reporters; type: cell-based
# [6] = test system: Lck and LAT; experiment: Hydroxylamine cleavage of S-acylated proteins (in-gel), immunoprecipitated Lck and LAT; type: cell-based, human; conditions: 1 M NH2OH pH 7.4; alk-16 on Lck and LAT, alk-12 on Lck
# Experimental: (§1) Cell lysates were collected after centrifuging at 1,000 g for 5 minutes at 4° C. to remove cell debris. Protein concentration was determined by the BCA assay. Typical lysate protein concentration obtained: 6-8 mg/mL. LAT, Lck and Ras proteins were immunoprecipitated from 200 μg Jurkat cell lysate using the following antibodies at recommended concentrations: mouse anti-Lck (p56lck) monoclonal (Clone 3A5, Thermo Scientific, Waltham, Mass., USA), rat anti-v-H-ras (Ab-1) monoclonal (Y13-259 agarose conjugate, Calbiochem, San Diego, Calif., USA), and rabbit anti-LAT polyclonal (Millipore, Billerica, Mass., USA). A rabbit anti-Fyn polyclonal (Millipore, Billerica, Mass., USA) was used to immunoprecipitate wild type and mutant Fyn proteins from transfected and metabolically labeled HeLa cells. 25 μL of packed protein A-agarose beads (Roche, Mannheim, Germany) was used per sample.
# The gel was finally washed with deionized water (2×5 minutes) and scanned for the post-hydroxylamine treatment fluorescence.
# [7] = In vivo labeling of acylated proteins after intraperitoneal injection of alkynyl-chemical reporters; conditions: mice, one hour, splenocytes, liver
# Experimental: (§2) Livers were harvested and incubated with Liberase 3 Blendzyme™ (Roche, Mannheim, Germany) at 37° C. for 30 minutes+ and homogenized prior to filtration with 0.4 μm cell strainers. Splenocytes were prepared by manual disruption of spleens using forceps. Liver and splenocyte preparations were subjected to red blood cell lysis using ACK lysis buffer.
# as §2, with “Livers and kidney” for “Livers”, “Blendzyme” for “Blendzyme™”, “minutes” for “minutes+”, “Liver, kidney” for “Liver”
# [8] = biological target: T2, Fyn (Homo sapiens, UniProt P06241, C3S/C6S); experiment: Alkynyl-fatty acid labeling of wild type, G2A and C3,6S Fyn overexpressed in HeLa cells, immunoprecipitation; type: cell-based; conditions: 20 μM reporter
# T2 construct: expressed in transfected cells; host or cells: HeLa cells
# Experimental: (§3) HeLa cells were grown in 10 cm dishes to approximately 90% confluence in DMEM, supplemented with 10% FBS, and transfected with wildtype, G2A or C3,6S Fyn constructs using Lipofectamine 2000 (Invitrogen). The human Fyn constructs, wild type and mutant Fyn cDNAs cloned into eukaryotic expression vector pCMV5, were gifts from Dr. Marilyn Resh, Memorial Sloan-Kettering Cancer Center. The following day, cells were metabolically labeled with alkynyl-fatty acid analogs as described above.
# as §1
# [9] = biological target: T3, Fyn (Homo sapiens, UniProt P06241, G2A); experiment: as above; type: cell-based; conditions: 20 μM reporter
# T3 construct: expressed in transfected cells; host or cells: HeLa cells
# Experimental: as §3, §1
# [10] = biological target: T4, Fyn (Homo sapiens, UniProt P06241); experiment: as above; type: cell-based; conditions: 20 μM reporter
# T4 construct: expressed in transfected cells; host or cells: HeLa cells
# Experimental: as §3, §1
# [11] = test system: Lck; experiment: Pulse-chase tandem imaging of palmitate turnover on Lck in Jurkat T cells; type: cell-based, human; conditions: over 6 hours
# [12] = test system: metabolic incorporation of chemical reporters; experiment: Effect of inhibitors/additives on metabolic incorporation of alkynyl-chemical reporters; type: cell-based
# [13] = lysine-modified peptide, H3 + acyl-CoA + p300
# [14] = lysine-modified peptide, H3 + acyl-CoA, without p300
# T1 sequence (Q09472 whole entry): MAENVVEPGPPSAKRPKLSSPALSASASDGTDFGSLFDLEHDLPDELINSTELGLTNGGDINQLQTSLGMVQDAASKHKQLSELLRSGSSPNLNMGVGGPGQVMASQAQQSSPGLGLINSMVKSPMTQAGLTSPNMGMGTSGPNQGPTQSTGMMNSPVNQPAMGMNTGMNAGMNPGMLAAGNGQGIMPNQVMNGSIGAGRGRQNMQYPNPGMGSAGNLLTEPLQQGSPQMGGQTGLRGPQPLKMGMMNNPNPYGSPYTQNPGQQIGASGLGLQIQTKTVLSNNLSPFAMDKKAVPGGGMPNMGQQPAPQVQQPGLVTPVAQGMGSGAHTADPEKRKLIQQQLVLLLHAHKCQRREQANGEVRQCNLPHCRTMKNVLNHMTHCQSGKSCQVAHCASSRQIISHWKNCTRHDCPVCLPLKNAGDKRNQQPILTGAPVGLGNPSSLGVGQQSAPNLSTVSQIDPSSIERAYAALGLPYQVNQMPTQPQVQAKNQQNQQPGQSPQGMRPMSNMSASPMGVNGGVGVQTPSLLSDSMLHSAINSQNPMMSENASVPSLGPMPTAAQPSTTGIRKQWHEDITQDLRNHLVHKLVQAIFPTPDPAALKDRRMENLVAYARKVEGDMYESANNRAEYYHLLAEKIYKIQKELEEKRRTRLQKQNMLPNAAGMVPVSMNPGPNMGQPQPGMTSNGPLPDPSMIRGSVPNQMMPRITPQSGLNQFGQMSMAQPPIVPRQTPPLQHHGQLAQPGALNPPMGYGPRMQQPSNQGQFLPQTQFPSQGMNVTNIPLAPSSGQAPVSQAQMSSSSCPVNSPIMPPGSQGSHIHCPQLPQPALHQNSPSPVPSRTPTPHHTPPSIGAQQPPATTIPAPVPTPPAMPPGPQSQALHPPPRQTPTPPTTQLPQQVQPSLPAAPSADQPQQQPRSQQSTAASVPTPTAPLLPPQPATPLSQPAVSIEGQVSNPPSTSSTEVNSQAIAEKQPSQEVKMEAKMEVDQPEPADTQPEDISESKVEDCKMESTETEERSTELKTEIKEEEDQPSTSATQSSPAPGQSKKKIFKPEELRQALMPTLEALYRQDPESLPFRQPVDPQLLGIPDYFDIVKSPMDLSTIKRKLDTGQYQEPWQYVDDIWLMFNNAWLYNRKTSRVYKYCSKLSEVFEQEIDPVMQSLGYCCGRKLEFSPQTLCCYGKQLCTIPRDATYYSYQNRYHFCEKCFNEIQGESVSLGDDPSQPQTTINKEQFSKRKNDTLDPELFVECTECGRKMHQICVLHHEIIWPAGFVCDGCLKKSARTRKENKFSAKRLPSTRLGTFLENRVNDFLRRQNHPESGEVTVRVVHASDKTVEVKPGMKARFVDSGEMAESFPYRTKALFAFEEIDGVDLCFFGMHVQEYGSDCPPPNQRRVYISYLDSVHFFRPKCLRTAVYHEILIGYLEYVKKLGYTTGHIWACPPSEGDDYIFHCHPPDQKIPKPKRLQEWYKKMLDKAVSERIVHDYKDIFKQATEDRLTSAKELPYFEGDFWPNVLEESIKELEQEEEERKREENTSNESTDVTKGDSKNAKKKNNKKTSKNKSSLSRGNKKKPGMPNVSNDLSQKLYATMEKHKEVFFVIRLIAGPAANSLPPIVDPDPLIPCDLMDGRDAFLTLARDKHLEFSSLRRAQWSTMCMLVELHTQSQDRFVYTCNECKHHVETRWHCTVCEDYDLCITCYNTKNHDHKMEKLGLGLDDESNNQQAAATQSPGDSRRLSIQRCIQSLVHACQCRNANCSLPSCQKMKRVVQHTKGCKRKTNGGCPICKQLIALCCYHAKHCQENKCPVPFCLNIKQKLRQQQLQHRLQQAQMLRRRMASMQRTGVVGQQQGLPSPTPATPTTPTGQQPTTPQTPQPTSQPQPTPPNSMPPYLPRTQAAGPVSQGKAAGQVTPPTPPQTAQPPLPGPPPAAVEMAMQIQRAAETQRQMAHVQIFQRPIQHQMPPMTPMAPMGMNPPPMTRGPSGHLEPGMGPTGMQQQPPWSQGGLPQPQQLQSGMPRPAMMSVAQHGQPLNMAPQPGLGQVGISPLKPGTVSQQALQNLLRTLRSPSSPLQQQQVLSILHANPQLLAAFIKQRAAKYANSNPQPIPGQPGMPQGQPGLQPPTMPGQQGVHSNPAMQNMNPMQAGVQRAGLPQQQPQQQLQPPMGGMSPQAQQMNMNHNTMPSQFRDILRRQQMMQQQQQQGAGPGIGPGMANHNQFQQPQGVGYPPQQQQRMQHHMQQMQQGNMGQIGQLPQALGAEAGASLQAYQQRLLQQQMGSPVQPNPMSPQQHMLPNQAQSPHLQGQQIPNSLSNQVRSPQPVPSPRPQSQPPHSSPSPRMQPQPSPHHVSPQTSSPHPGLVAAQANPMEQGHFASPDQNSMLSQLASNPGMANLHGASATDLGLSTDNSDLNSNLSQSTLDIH
# T3 sequence (P06241 2-537 G2A): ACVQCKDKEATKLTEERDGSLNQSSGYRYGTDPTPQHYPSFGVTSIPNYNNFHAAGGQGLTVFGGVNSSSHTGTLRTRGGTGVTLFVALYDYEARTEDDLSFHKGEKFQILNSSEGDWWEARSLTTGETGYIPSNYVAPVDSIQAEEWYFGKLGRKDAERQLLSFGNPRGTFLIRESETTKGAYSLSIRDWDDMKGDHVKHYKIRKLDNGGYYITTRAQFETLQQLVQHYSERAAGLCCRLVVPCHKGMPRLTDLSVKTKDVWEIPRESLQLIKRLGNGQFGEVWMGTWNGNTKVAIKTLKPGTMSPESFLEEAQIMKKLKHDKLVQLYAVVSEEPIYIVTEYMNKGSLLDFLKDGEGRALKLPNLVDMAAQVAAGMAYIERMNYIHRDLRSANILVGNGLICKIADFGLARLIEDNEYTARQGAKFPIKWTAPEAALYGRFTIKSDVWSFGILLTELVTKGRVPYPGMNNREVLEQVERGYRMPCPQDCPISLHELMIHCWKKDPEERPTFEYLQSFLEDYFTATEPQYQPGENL
# T4 sequence (P06241 2-537): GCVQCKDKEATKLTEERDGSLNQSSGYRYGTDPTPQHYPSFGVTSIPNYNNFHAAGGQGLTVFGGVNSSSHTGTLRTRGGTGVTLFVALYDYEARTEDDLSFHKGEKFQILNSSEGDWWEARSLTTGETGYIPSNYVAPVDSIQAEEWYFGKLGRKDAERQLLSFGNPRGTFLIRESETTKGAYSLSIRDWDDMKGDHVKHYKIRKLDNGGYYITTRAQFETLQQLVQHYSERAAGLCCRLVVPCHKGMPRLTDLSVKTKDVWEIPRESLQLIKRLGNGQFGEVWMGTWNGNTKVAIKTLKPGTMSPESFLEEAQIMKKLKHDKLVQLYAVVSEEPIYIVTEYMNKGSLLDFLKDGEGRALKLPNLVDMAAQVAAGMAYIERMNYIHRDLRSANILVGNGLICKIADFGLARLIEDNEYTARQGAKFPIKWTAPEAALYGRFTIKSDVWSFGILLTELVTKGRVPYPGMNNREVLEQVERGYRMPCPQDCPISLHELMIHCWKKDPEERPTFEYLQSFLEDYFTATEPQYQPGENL
# T2 sequence (P06241 2-537 C3S/C6S): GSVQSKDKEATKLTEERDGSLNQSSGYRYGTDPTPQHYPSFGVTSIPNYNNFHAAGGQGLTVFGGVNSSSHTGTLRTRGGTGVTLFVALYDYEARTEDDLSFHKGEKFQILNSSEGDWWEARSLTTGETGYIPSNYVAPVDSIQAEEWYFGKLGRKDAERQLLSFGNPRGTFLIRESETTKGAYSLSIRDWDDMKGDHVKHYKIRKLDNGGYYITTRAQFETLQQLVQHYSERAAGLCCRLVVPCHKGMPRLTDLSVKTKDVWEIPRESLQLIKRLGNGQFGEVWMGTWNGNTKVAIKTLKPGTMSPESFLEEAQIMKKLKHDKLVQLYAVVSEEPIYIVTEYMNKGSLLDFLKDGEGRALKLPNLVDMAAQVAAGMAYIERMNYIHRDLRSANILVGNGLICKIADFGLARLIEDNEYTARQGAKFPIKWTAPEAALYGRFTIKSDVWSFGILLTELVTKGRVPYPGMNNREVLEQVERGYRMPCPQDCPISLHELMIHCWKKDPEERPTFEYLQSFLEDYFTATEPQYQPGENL
compound,measurement,setting,value
5-hexynyl-CoA [Analog 3],utilization as acyl-CoA donor for p300-catalyzed acylation of histone H3 peptide,[1],less efficient acyl-donor substrate
same,Spectral Counts of Peptide EIAQDFK (73-79) (SEQ ID NO: 7),[2]; H3 + acyl-CoA + p300,89
same,Spectral Counts of Peptide KLPFQR (64-69) (SEQ ID NO: 6),[2]; H3 + acyl-CoA + p300,8
same,Spectral Counts of Peptide KQLATK (18-23) (SEQ ID NO: 1),[2]; H3 + acyl-CoA + p300,10
same,Spectral Counts of Peptide KSAPATGGVK (27-36) (SEQ ID NO: 2),[2]; H3 + acyl-CoA + p300,38
same,Spectral Counts of Peptide SAPATGGVK (28-36) SEQ ID NO: 3,[2]; H3 + acyl-CoA + p300,17
same,Spectral Counts of Peptide STELLIR (57-63) (SEQ ID NO: 5),[2]; H3 + acyl-CoA + p300,16
same,Spectral Counts of Peptide VTIMPK (117-122) (SEQ ID NO: 9),[2]; H3 + acyl-CoA + p300,8
same,Spectral Counts of Peptide YRPGTVALR (41-49) (SEQ ID NO: 4),[2]; H3 + acyl-CoA + p300,57
same,Spectral Counts of Peptide EIAQDFK (73-79) (SEQ ID NO: 7),"[2]; H3 + acyl-CoA, without p300",74
same,Spectral Counts of Peptide KQLATK (18-23) (SEQ ID NO: 1),"[2]; H3 + acyl-CoA, without p300",4
same,Spectral Counts of Peptide KSAPATGGVK (27-36) (SEQ ID NO: 2),"[2]; H3 + acyl-CoA, without p300",36
same,Spectral Counts of Peptide RVTIMPK (116-122) (SEQ ID NO: 8),"[2]; H3 + acyl-CoA, without p300",1
same,Spectral Counts of Peptide SAPATGGVK (28-36) SEQ ID NO: 3,"[2]; H3 + acyl-CoA, without p300",12
same,Spectral Counts of Peptide STELLIR (57-63) (SEQ ID NO: 5),"[2]; H3 + acyl-CoA, without p300",7
same,Spectral Counts of Peptide VTIMPK (117-122) (SEQ ID NO: 9),"[2]; H3 + acyl-CoA, without p300",3
same,Spectral Counts of Peptide YRPGTVALR (41-49) (SEQ ID NO: 4),"[2]; H3 + acyl-CoA, without p300",47
same,"Spectral Counts of Peptide KQLATK (18-23, K18) (SEQ ID NO: 13)",[2]; [13],19
same,"Spectral Counts of Peptide KQLATKAAR (18-26, K18, K23) (SEQ ID NO: 15)",[2]; [13],18
same,"Spectral Counts of Peptide KSAPATGGVK (27-36, K27) (SEQ ID NO: 17)",[2]; [13],12
same,"Spectral Counts of Peptide KSTGGKAPR (9-17, K9, K14) (SEQ ID NO: 11)",[2]; [13],2
same,"Spectral Counts of Peptide KSTGGKAPR (9-17, K14) (SEQ ID NO: 10)",[2]; [13],11
same,"Spectral Counts of Peptide QLATKAAR (19-26, K23) (SEQ ID NO: 16)",[2]; [13],1
same,"Spectral Counts of Peptide KQLATK (18-23, K18) (SEQ ID NO: 13)",[2]; [14],2
same,"Spectral Counts of Peptide KSAPATGGVK (27-36, K27) (SEQ ID NO: 17)",[2]; [14],2
same,"Spectral Counts of Peptide KSTGGKAPR (9-17, K14) (SEQ ID NO: 10)",[2]; [14],2
same,visualization of p300-acylation of histone H3,[3],serve as sensitive reagents for visualizing p300-acylation of histone H3
"C#CCCCCCCCCCCCC(=O)O [alk-12, Tetradec-13-ynoic acid]",class of acylated proteins targeted by the reporter,[4],cotranslationally targets N-myristoylated proteins
same,labeling of proteins in bacterial cells,[5],labeled distinct proteins
same,effect of in-gel NH2OH treatment on fluorescent signal of reporter-labeled protein,[6],did not alter
same,profile of acylated proteins after in vivo labeling,[7],discrete profile of acylated proteins from splenocytes similar to ex vivo labeling
same,"labeling of dual S-palmitoylation-deficient C3,6S mutant Fyn",[8],efficiently labeled
same,labeling of N-myristoylation G2A-mutant Fyn,[9],significantly reduced
same,fatty-acylation of wild-type Fyn,[10],readily detected
"C#CCCCCCCCCCCCCCCCC(=O)O [alk-16, Octadec-17-ynoic acid]",class of acylated proteins targeted by the reporter,[4],preferentially labels S-acylated proteins
same,labeling of proteins in bacterial cells,[5],labeled distinct proteins
same,effect of in-gel NH2OH treatment on fluorescent signal of reporter-labeled protein,[6],reduced the fluorescent signal
same,decay of reporter signal on Lck with excess myristate as the chase additive,[11],No significant decay
same,profile of acylated proteins after in vivo labeling,[7],did not reveal discrete profiles of acylated proteins in splenocytes or liver
same,labeling of N-myristoylation G2A-mutant Fyn,[9],undetectable
same,fatty-acylation of wild-type Fyn,[10],readily detected
CCCC(=O)O [butyric acid],effect on labeling of acetylated proteins with alk-4,[12],inhibited
